Experimental data from patent US20240207277A1, “Methods For Treating Drug and Vaccine Induced Immune Thrombocytopenia by Administering Specific Compounds” (Principia Biopharma Inc., priority 2021, published 2024).
“And” between values parts separate entries of the source, which are not always exact repeats. Equal entries are not always repeated. “Also recorded” adds a separate entry of the source. Where a SMILES comes first, the peptide text is derived from it. Bridges are numbered along the chain shown (N, C = ends). [ ]: non-standard residue; d: D form. hArg = N=C(N)NCCCC[C@H](N)C(=O)O; Mpa = O=C(O)CCS

Key:
[1] = test system: washed platelets; assay: Light transmission aggregometry of washed platelets stimulated with serum from patients with VITT; assay type: cell-based, human
Method: Washed platelets were prepared from citrated whole blood as described in Nicolson et al., Low-dose BTK inhibitors selectively block platelet activation by CLEC-2, Haematologica 106(1):208-19 (2021). Briefly; citrated blood was taken from healthy, drug-free volunteers and mixed (1:10, v/v) with acid citrate dextrose and centrifuged (200×g, 20 minutes, RT) to produce platelet rich plasma. Platelet rich plasma was then centrifuged (1000×g, 10 minutes, RT) in the presence of 0.2 μg/mL prostacyclin. The platelet pellet was resuspended in modified-Tyrode's-HEPES buffer, prepared as described in Nicolson et al., acid citrate dextrose and 0.2 μg/mL prostacyclin and centrifuged (1000×g, 10 minutes, RT). Platelet pellet was resuspended in modified-Tyrode's-HEPES buffer to a concentration of 2×10^8/mL and allowed to rest for 30 minutes prior to use.
Aggregation was measured in washed platelets (2×10^8/mL) under stirring conditions (1200 rpm) at 37° C. using a light transmission aggregometer (Model 700, ChronoLog) for 20 minutes following stimulation with serum (1:15, v/v). Washed platelets were pre-incubated with IV.3 F(ab) for 5 minutes or with inhibitors for 10 minutes prior to stimulation with serum. Modified-Tyrode's-HEPES buffer or dimethyl sulfoxide (DMSO) was used as vehicle.

[2] = test system: platelets; assay: Heparin Induced Platelet Activation (HIPA) assay (HITAlert kit); assay type: cell-based, human
Text: See, e.g., Greinacher et al., Thrombotic thrombocytopenia after ChAdOx1 nCov-19 vaccination, N Engl J Med, doi:10.1056/NEJMoa2104840 (2021); Schlutz et al., Thrombosis and thrombocytopenia after ChAdox1 nCoV-19 vaccination, N Engl J Med, doi:10.1056/NEJMoa2104882 (2021). Cross-sectional brain imaging verified the presence of cerebral venous sinus thrombosis (CVST) and intracerebral haemorrhage in three patients, and ischemic stroke caused by internal carotid artery thrombus in one patient.

[3] = test system: platelets via FcγRIIA; conditions: both low and high concentrations of heparin; cited from earlier work
[4] = human, in vivo; cited from earlier work
[5] = Bleeding in thrombocytopenic patients; assay type: in vivo, human
[6] = Pharmacokinetics in humans after oral administration; assay type: in vivo, human
[7] = test system: 251-kinase panel; assay: 251-kinase panel selectivity; assay type: biochemical; conditions: 1 μM
[8] = test system: platelets; assay: Normal platelet function in vitro; assay type: cell-based
[9] = test system: washed platelets; assay: Light transmission aggregometry, aggregation to collagen; assay type: cell-based, human; conditions: 3 μg/mL collagen; results not shown
Method: […] Modified-Tyrode's-HEPES buffer or dimethyl sulfoxide (DMSO) was used as vehicle.
We tested if the Btk inhibitor rilzabrutinib (rilzabrutinib powder prepared in DMSO (final 0.02% DMSO) to achieve a concentration of 0.5 μM) could prevent platelet aggregation in patient sera.

[10] = in comparison to first and second generation BTKi; cited from earlier work
[11] = biological target: BTK enzyme (Homo sapiens, UniProt Q06187); conditions: healthy volunteers; doses which provide 100% occupancy of the BTK enzyme; cited from earlier work
[12] = Phase 2 trial; cited from earlier work
[13] = HITAlert at presentation, serum of the individual VITT patient, normal range ≤ 8%

Sequence of BTK enzyme (Q06187 whole entry): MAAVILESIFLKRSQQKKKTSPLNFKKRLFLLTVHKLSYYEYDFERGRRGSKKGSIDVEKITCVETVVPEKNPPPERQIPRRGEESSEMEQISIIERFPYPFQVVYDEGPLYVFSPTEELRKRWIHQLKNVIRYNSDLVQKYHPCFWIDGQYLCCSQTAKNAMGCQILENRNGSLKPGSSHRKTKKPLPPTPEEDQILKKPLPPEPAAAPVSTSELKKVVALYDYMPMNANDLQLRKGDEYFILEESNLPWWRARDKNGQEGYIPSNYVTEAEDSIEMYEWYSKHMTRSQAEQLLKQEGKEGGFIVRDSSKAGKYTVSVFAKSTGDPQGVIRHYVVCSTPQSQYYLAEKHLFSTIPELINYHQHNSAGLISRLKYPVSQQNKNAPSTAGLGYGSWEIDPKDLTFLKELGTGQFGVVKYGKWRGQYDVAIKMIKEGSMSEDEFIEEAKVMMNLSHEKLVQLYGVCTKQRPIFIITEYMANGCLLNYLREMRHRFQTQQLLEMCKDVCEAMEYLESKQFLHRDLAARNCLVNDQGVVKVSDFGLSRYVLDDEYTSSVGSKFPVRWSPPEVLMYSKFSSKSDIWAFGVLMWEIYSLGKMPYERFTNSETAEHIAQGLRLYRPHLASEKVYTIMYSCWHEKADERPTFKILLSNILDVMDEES

With `CC[C@H](C)[C@H](N)C(=O)N[C@H]1CSSC[C@@H](C(=O)N[C@H](C(N)=O)[C@@H](C)O)NC(=O)[C@H](CCCN=C(N)N)NC(=O)[C@H](Cc2cnc[nH]2)NC(=O)[C@H](Cc2cnc[nH]2)NC(=O)CNC(=O)[C@H](Cc2c[nH]c3ccccc23)NC(=O)[C@H](CC(=O)O)NC(=O)[C@H](CCC(N)=O)NC(=O)[C@H](C(C)C)NC(=O)[C@H](C(C)C)NC1=O` [compstatin] the “effect on aggregation to patient sera (complement inhibitors)” value ([1]; data not shown) was “minor effects”.

In the case of heparin, the “Platelet activation with serum and excess heparin” value [2, 13] is reported as 0.64% and 3.68% and 1.43% and 4.38%, the “Platelet activation with serum and heparin” value [2, 13] is reported as 18.53% and 18% and 36.5% and 22.63% and the “platelet activation by patient sera, high concentration of heparin” value ([2]; sera of four patients tested) is reported as “blocked”. The “platelet activation by patient sera, low concentration of heparin” value ([2]; sera of four patients tested) was “reduced”, the “platelet activation by immune complexes” value [3] was “blocked” and the “deleterious effect in 1 patient with VITT” value [4] was “without deleterious effect”. For the same molecule, the “aggregation to VITT patient sera, high heparin” value ([1]; high heparin concentration (100 U/mL)) was “blocked aggregation” and the “aggregation to VITT patient sera, low heparin” value ([1]; low (0.2 U/mL) concentration of heparin, 7 patients) was “prevented (5 of 7 patients) or delayed (2 of 7 patients)”.

For `N=C(N)NCCCC[C@@H]1NC(=O)CCSSC[C@@H](C(N)=O)NC(=O)[C@@H]2CCCN2C(=O)[C@H](Cc2c[nH]c3ccccc23)NC(=O)[C@H](CC(=O)O)NC(=O)CNC1=O` [eptifibatide] ([Mpa][hArg]GDWPC-NH2; disulfide 1-7), the “response (aggregation) to patient sera” value ([1]; eptifibatide 9 μM, data not shown) was “inhibited”.

For `N=C(N)c1ccc2cc(OC(=O)c3ccc(N=C(N)N)cc3)ccc2c1` [FUT-175], the “effect on aggregation to patient sera (complement inhibitors)” value ([1]; data not shown) was “minor effects”.

For `CC(C)(C=C(C#N)C(=O)N1CCC[C@@H](n2nc(-c3ccc(Oc4ccccc4)cc3F)c3c(N)ncnc32)C1)N1CCN(C2COC2)CC1` [Compound (I), (R)-2-[3-[4-amino-3-(2-fluoro-4-phenoxy-phenyl)pyrazolo[3,4-d]pyrimidin-1-yl]piperidine-1-carbonyl]-4-methyl-4-[4-(oxetan-3-yl)piperazin-1-yl]pent-2-enenitrile], the association with bleeding [5] was “has not been associated with bleeding”, the absorption [6] was “rapidly absorbed” and the half-life ([6]; human, in vivo) was 3 to 4 h. The “number of kinases with >90% inhibition” value [7] was 6 kinases, the “platelet aggregation induced by serum from patients with VITT” value ([1]; rilzabrutinib 0.5 μM, 10 minutes pre-incubation, washed platelets 2×10^8/mL, serum 1:15 v/v, n=7) was “prevented platelet aggregation; also recorded: blocks platelet aggregation” and the “impact on normal platelet function” value [8] was “no impact”. For the same molecule, the aggregation to collagen [9] was “fully inhibited” and the “cross-reactivity with other molecules” value [10] was “minimal cross-reactivity”.

For `C=CC(=O)Nc1cccc(Nc2nc(Nc3ccc(OCCOC)cc3)ncc2F)c1` [CC-292, spebrutinib], the tolerability [11] is listed as “well tolerated”.

For `C=CC(=O)N1CCC(CNc2ncnc(N)c2-c2ccc(Oc3ccccc3)cc2)CC1` [evobrutinib], the “efficacy for multiple sclerosis” value [12] is listed as “demonstrated efficacy”.

B1: PF4: platelet factor 4 (protein, UniProt P02776 32-101, looked up)
Platelet factor 4: EAEEDGDLQCLCVKTTSQVRPRHITSLEVIKAGPHCPTAQLIATLKNGRKICLDLQAPLYKKIIKKLLES
In the case of B1, the “enhancement of partial aggregation to patient 2 serum” value ([1]; 10 μg/mL PF4, data not shown) is reported as “No enhancement”.
